The nature of data set [1]: Distribution of DiR-loaded UsNFs in the GIT. As to conditions: oral, 2 mg/kg DiR. It counts as in vivo, C57BL/6J mice. The method, then:
34 Distribution of UsNFs in the GIT.
37 of 2 mg/kg DiR. […] The stomachs and
41 FITC-dextran permeability assay .
Blood samples were collected at
44 shielded from light exposure. […] Standards (0.1–
48 subtraction and subjected to statistical analysis.
The mice were divided into three groups
61 sterilized drinking water.

For data set [2], the system named is faecal metabolites of gut bacteria. Nature of the data set: Faecal metabolome analysis (GC-MS) in VAN-induced mice. It counts as in vivo, C57BL/6 mice. As to the method:
The extract of faecal samples (40 mg/ml methanol) was prepared as described in the previous method. The obtained dry extract was derivatized with methoxyamine-HCl and BSTFA (Sigma-Aldrich, USA), followed by incubation for 1 h at 37 °C. Subsequently, the supernatant (10 μl) obtained after centrifugation at 10,000×g for 12 min was injected into an Agilent GC-MS. The injector, transfer line, and ion source were set at 280 °C, 150 °C and 230 °C, respectively. At the beginning, we set the oven temperature to 60 °C, and then increased at 60 °C/min for 2 min, followed by an increase at the rate of 10 °C/min until reaching 300 °C.

Data set [3] deals with VAN-induced C57BL/6J mouse model. The experiment in a line: VAN-induced intestinal epithelial barrier dysfunction and gut inflammation model.
Description: This was succeeded by a daily oral administration of 50 mg/kg UsNFs of CUR for another 10 days, whereas the control group (CON) received standard rodent feed and water (Fig. 5A).

Turning to `CCCCCCCCCCCCCCCCCCN1C(=CC=CC=CC=CC2=[N+](CCCCCCCCCCCCCCCCCC)c3ccccc3C2(C)C)C(C)(C)c2ccccc21` [Free DiR, 1,1′-dioctadecyl-3,3,3′,3′-tetramethylindotricarbocyanine], the “Residence in the GIT (NIR signal of DiR)” value in data set [1] is given as “quick removal via feces”.

Consider `CN[C@H](CC(C)C)C(=O)N[C@H]1C(=O)N[C@@H](CC(N)=O)C(=O)N[C@H]2C(=O)N[C@H]3C(=O)N[C@H](C(=O)N[C@H](C(=O)O)c4cc(O)cc(O)c4-c4cc3ccc4O)[C@H](O)c3ccc(c(Cl)c3)Oc3cc2cc(c3O[C@@H]2O[C@H](CO)[C@@H](O)[C@H](O)[C@H]2O[C@H]2C[C@](C)(N)[C@H](O)[C@H](C)O2)Oc2ccc(cc2Cl)[C@H]1O` [VAN, vancomycin], for which, in data set [2] (VAN-induced group (CON 1.1 %)), the “Content of butyrate in faeces” value came out at 0.14%. The “Content of propionate in faeces” value in data set [2] (VAN-induced group (CON 1.3 %)) stood at 0.16%. Also, in data set [2] (VAN-induced group (CON 1.52 %)), the “Content of acetate in faeces” value was 0.16%. Further, the “Content of azelaic acid in faeces” value in data set [2] (VAN-induced group (CON 2.2 %)) is on record as 0.34%. The “Content of 9,12,15-octadecatrienoic acid in faeces” value in data set [2] (VAN-induced group (CON 3.11 %)) came to 0.8%. Besides, the “Content of 4-aminovaleric acid in faeces” value in data set [2] (VAN-induced group (CON 12.7 %)) was determined as 1.4%. The “Content of hexanoic acid in faeces” value in data set [2] (VAN-induced group, printed from 23.7 % to 0.81 %) is on record as 0.81%. The “Colon length increase over control group” value in data set [3] (VAN 20 mg/ml in drinking water, 10 days) is 21.9%. The MDA level increase result in data set [3] (VAN-induced group) is given as “around 2.5 times”.

The values are drawn from paper PMC12702354, “Engineered an ultrasmall curcumin oral nanoformulation restores intestinal integrity and gut microbiota dysbiosis” (Materials Today Bio, 2025).
